Data taken from patent US20240217957A1, “HETEROCYCLIC COMPOUND AND USE THEREOF” (TAKEDA PHARMACEUTICAL COMPANY LIMITED, priority 2022, published 2024).

molecular target: T1, human OX2 receptor (Homo sapiens, UniProt O43614); experiment: Measurement of orexin type 2 receptor agonist activity (calcium fluorescence, Fluo-4 AM, FDSS); type: cell-based; settings: compound at 3 μM; CHO cells forcibly expressing human OX2 receptor; DMSO = 0%, 10 nM orexin A (human) = 100%
T1 construct: expressed in transfected cells
T1 sequence (O43614 1-444): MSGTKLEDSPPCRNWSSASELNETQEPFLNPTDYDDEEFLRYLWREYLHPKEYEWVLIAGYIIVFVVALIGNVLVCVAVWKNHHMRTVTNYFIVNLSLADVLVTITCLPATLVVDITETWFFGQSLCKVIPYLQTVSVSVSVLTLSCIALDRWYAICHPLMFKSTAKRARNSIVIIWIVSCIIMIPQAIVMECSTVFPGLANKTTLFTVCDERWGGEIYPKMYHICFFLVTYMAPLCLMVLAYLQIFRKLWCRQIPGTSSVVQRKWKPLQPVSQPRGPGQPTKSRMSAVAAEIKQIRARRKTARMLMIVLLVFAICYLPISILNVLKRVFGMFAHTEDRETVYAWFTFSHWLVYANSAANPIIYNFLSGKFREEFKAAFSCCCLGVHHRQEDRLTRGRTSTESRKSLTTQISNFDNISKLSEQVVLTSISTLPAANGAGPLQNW
Method in brief: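 CHO-K1 cells stably expressing human OX2 receptor (residues 1-444) loaded with Fluo-4 AM in HBSS/20 mM HEPES/0.1% BSA with probenecid, 30 min at 37° C. then 30 min at room temperature. After compound addition, calcium fluorescence read for 1 min 40 s; activity (%) scaled to DMSO (0%) and 10 nM orexin A (100%).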

| OX2R agonist activity (3 μM, %) | Compound |
| --- | --- |
| 98% | CS(=O)(=O)N[C@@H]1CN(C2=NOC(c3ncc(Cl)cc3-c3c(F)cc(F)cc3F)C2)C[C@@H]1F (stereo partly drawn) [Example 112, N-[(3R,4S)-1-{5-[5-chloro-3-(2,4,6-trifluorophenyl)pyridin-2-yl]-4,5-dihydro-1,2-oxazol-3-yl}-4-fluoropyrrolidin-3-yl]methanesulfonamide] |
| 100% | CS(=O)(=O)N[C@@H]1CN(C2=NOC(CF)(c3ncc(F)cc3-c3c(F)cc(F)cc3F)C2)C[C@@H]1F (stereo partly drawn) [Example 113, N-[(3R,4S)-4-fluoro-1-{5-(fluoromethyl)-5-[5-fluoro-3-(2,4,6-trifluorophenyl)pyridin-2-yl]-4,5-dihydro-1,2-oxazol-3-yl}pyrrolidin-3-yl]methanesulfonamide] |
| 87% | Cc1ccc(C2CC(N3C[C@@H](NS(C)(=O)=O)C(F)(F)C3)=NO2)c(-c2c(F)cccc2F)n1 (stereo partly drawn) [Example 114, N-[(3R)-1-{5-[2-(2,6-difluorophenyl)-6-methylpyridin-3-yl]-4,5-dihydro-1,2-oxazol-3-yl}-4,4-difluoropyrrolidin-3-yl]methanesulfonamide] |
| 100% | CCS(=O)(=O)N[C@@H]1CN(C2=NOC(CF)(c3ncc(Cl)cc3-c3c(F)cccc3F)C2)C[C@@H]1F (stereo partly drawn) [Example 115, N-[(3R,4S)-1-{5-[5-chloro-3-(2,6-difluorophenyl)pyridin-2-yl]-5-(fluoromethyl)-4,5-dihydro-1,2-oxazol-3-yl}-4-fluoropyrrolidin-3-yl]ethanesulfonamide] |
| 100% | CS(=O)(=O)N[C@@H]1CN(C2=NOC(CF)(c3ncc(F)cc3-c3c(F)cccc3F)C2)C[C@@H]1F (stereo partly drawn) [Example 116, N-[(3R,4S)-1-{5-[3-(2,6-difluorophenyl)-5-fluoropyridin-2-yl]-5-(fluoromethyl)-4,5-dihydro-1,2-oxazol-3-yl}-4-fluoropyrrolidin-3-yl]methanesulfonamide] |
| 100% | CC1(c2ncc(F)cc2-c2c(F)cccc2F)CC(N2C[C@H](F)[C@H](NS(C)(=O)=O)C2)=NO1 (stereo partly drawn) [Example 118, N-[(3R,4S)-1-{5-[3-(2,6-difluorophenyl)-5-fluoropyridin-2-yl]-5-methyl-4,5-dihydro-1,2-oxazol-3-yl}-4-fluoropyrrolidin-3-yl]methanesulfonamide] |
| 101% | CS(=O)(=O)N[C@@H]1CN(C2=NOC(c3ccc(F)cc3-c3c(F)cccc3F)C2)C[C@@H]1F (stereo partly drawn) [Example 119, N-{(3R,4S)-4-fluoro-1-[5-(2′,5,6′-trifluoro[1,1′-biphenyl]-2-yl)-4,5-dihydro-1,2-oxazol-3-yl]pyrrolidin-3-yl}methanesulfonamide] |
| 102% | CN(C)S(=O)(=O)N[C@@H]1CN(C2=NOC(c3ncc(F)cc3-c3c(F)cc(F)cc3F)C2)C[C@@H]1F (stereo partly drawn) [Example 120, N′-[(3R,4S)-4-fluoro-1-{5-[5-fluoro-3-(2,4,6-trifluorophenyl)pyridin-2-yl]-4,5-dihydro-1,2-oxazol-3-yl}pyrrolidin-3-yl]-N,N-dimethylsulfuric diamide] |
| 98% | CN(C)S(=O)(=O)N[C@@H]1CN(C2=NOC(c3ncc(Cl)cc3-c3c(F)cccc3F)C2)C[C@@H]1F (stereo partly drawn) [Example 121, N′-[(3R,4S)-1-{5-[5-chloro-3-(2,6-difluorophenyl)pyridin-2-yl]-4,5-dihydro-1,2-oxazol-3-yl}-4-fluoropyrrolidin-3-yl]-N,N-dimethylsulfuric diamide] |
| 102% | CC1(c2ncc(F)cc2-c2c(F)cccc2F)CC(N2CC[C@H](NS(C)(=O)=O)C2)=NO1 (stereo partly drawn) [Example 122, N-[(3S)-1-{5-[3-(2,6-difluorophenyl)-5-fluoropyridin-2-yl]-5-methyl-4,5-dihydro-1,2-oxazol-3-yl}pyrrolidin-3-yl]methanesulfonamide] |
| 100% | CN(C)S(=O)(=O)N[C@@H]1CN(C2=NOC(c3ccc(Cl)cc3-c3ncc(F)cc3F)C2)C[C@@H]1F (stereo partly drawn) [Example 123, N′-[(3R,4S)-1-{5-[4-chloro-2-(3,5-difluoropyridin-2-yl)phenyl]-4,5-dihydro-1,2-oxazol-3-yl}-4-fluoropyrrolidin-3-yl]-N,N-dimethylsulfuric diamide] |
| 97% | Cc1ccc(C2CC(N3C[C@H](F)[C@H](NS(C)(=O)=O)C3)=NO2)c(-c2ncc(F)cc2F)c1 (stereo partly drawn) [Example 124, N-[(3R,4S)-1-{5-[2-(3,5-difluoropyridin-2-yl)-4-methylphenyl]-4,5-dihydro-1,2-oxazol-3-yl}-4-fluoropyrrolidin-3-yl]methanesulfonamide] |
| 104% | Cc1ccc(C2CC(N3C[C@H](F)[C@H](NS(=O)(=O)N(C)C)C3)=NO2)c(-c2ncc(F)cc2F)c1 (stereo partly drawn) [Example 125, N′-[(3R,4S)-1-{5-[2-(3,5-difluoropyridin-2-yl)-4-methylphenyl]-4,5-dihydro-1,2-oxazol-3-yl}-4-fluoropyrrolidin-3-yl]-N,N-dimethylsulfuric diamide] |
| 98% | CS(=O)(=O)N[C@@H]1CN(C2=NOC(c3ncc(F)cc3-c3c(F)cccc3F)(C(F)F)C2)CC1(F)F (stereo partly drawn) [Example 126, N-[(3R)-1-{5-(difluoromethyl)-5-[3-(2,6-difluorophenyl)-5-fluoropyridin-2-yl]-4,5-dihydro-1,2-oxazol-3-yl}-4,4-difluoropyrrolidin-3-yl]methanesulfonamide] |
| 100% | Cc1cc(-c2c(F)cccc2F)c(C2CC(N3C[C@@H](NS(C)(=O)=O)C(F)(F)C3)=NO2)cn1 (stereo partly drawn) [Example 127, N-[(3R)-1-{5-[4-(2,6-difluorophenyl)-6-methylpyridin-3-yl]-4,5-dihydro-1,2-oxazol-3-yl}-4,4-difluoropyrrolidin-3-yl]methanesulfonamide] |
| 105% | O=S(=O)(CF)N[C@@H]1CN(C2=NO[C@H](c3ncc(F)cc3-c3c(F)cc(F)cc3F)C2)CC1(F)F [Example 128, N-[(3R)-4,4-difluoro-1-{(5S)-5-[5-fluoro-3-(2,4,6-trifluorophenyl)pyridin-2-yl]-4,5-dihydro-1,2-oxazol-3-yl}pyrrolidin-3-yl]-1-fluoromethanesulfonamide] |
| 102% | CS(=O)(=O)N[C@@H]1CN(C2=NOC(CF)(c3ncc(Cl)cc3-c3c(F)cccc3F)C2)C[C@@H]1F (stereo partly drawn) [Example 129, N-[(3R,4S)-1-{5-[5-chloro-3-(2,6-difluorophenyl)pyridin-2-yl]-5-(fluoromethyl)-4,5-dihydro-1,2-oxazol-3-yl}-4-fluoropyrrolidin-3-yl]methanesulfonamide] |
| 104% | CCC1(c2ncc(F)cc2-c2c(F)cccc2F)CC(N2C[C@@H](NS(C)(=O)=O)C(F)(F)C2)=NO1 (stereo partly drawn) [Example 130, N-[(3R)-1-{5-[3-(2,6-difluorophenyl)-5-fluoropyridin-2-yl]-5-ethyl-4,5-dihydro-1,2-oxazol-3-yl}-4,4-difluoropyrrolidin-3-yl]methanesulfonamide] |
| 112% | COCC1(c2ncc(F)cc2-c2c(F)cccc2F)CC(N2C[C@@H](NS(C)(=O)=O)C(F)(F)C2)=NO1 (stereo partly drawn) [Example 131, N-[(3R)-1-{5-[3-(2,6-difluorophenyl)-5-fluoropyridin-2-yl]-5-(methoxymethyl)-4,5-dihydro-1,2-oxazol-3-yl}-4,4-difluoropyrrolidin-3-yl]methanesulfonamide] |
| 110% | CCS(=O)(=O)N[C@@H]1CN(C2=NOC(COC)(c3ncc(F)cc3-c3c(F)cccc3F)C2)C[C@@H]1F (stereo partly drawn) [Example 132, N-[(3R,4S)-1-{5-[3-(2,6-difluorophenyl)-5-fluoropyridin-2-yl]-5-(methoxymethyl)-4,5-dihydro-1,2-oxazol-3-yl}-4-fluoropyrrolidin-3-yl]ethanesulfonamide] |
| 107% | CCS(=O)(=O)N[C@@H]1CN(C2=NOC(c3ncc(Cl)cc3-c3c(F)cccc3F)C2)C[C@@H]1F (stereo partly drawn) [Example 133, N-[(3R,4S)-1-{5-[5-chloro-3-(2,6-difluorophenyl)pyridin-2-yl]-4,5-dihydro-1,2-oxazol-3-yl}-4-fluoropyrrolidin-3-yl]ethanesulfonamide] |
| 103% | Cc1ncc(C2CC(N3C[C@@H](NS(C)(=O)=O)C(F)(F)C3)=NO2)c(-c2c(F)cccc2F)n1 (stereo partly drawn) [Example 134, N-[(3R)-1-{5-[4-(2,6-difluorophenyl)-2-methylpyrimidin-5-yl]-4,5-dihydro-1,2-oxazol-3-yl}-4,4-difluoropyrrolidin-3-yl]methanesulfonamide] |
| 115% | CS(=O)(=O)N[C@@H]1CN(C2=NOC(CO)(c3ncc(C(F)F)cc3-c3c(F)cccc3F)C2)CC1(F)F (stereo partly drawn) [Example 135, N-[(3R)-1-{5-[5-(difluoromethyl)-3-(2,6-difluorophenyl)pyridin-2-yl]-5-(hydroxymethyl)-4,5-dihydro-1,2-oxazol-3-yl}-4,4-difluoropyrrolidin-3-yl]methanesulfonamide] |
| 114% | CS(=O)(=O)N[C@@H]1CN(C2=NOC(c3c(F)ccc(F)c3-c3c(F)cccc3F)C2)CC1(F)F (stereo partly drawn) [Example 136, N-{(3R)-4,4-difluoro-1-[5-(2′,3,6,6′-tetrafluoro[1,1'-biphenyl]-2-yl)-4,5-dihydro-1,2-oxazol-3-yl]pyrrolidin-3-yl}methanesulfonamide] |
